Assay results as given in PubChem BioAssay AID1918993 (Molecular Pharmacology Branch, DTP, NCI, 2023).
“And” between values parts separate entries of the source, which are not always exact repeats. Equal values may be shown once. Values belong to the compound of their own block, whether it stands above or below them.

Tested on: 233499-124-R-J3-PDC complex spheroid growth
Assay: Anticancer human tumor 233499-124-R-J3-PDC patient-derived colon adenocarcinoma cell line growth inhibition [AhR]
Conditions: for viability, T/C: stronger effect = lower value
Method in brief: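 Agents were dosed in half-log steps down from roughly clinical Cmax, or from 10 microM where Cmax was unknown, alone and with AhR antagonists. Read-out: percent test/control growth of tumor spheroids containing HUVEC and MSC stromal cells.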

[1] = curve of first compound, second compound 0.1 µM
[2] = curve of first compound, second compound 0.316 µM
[3] = curve of first compound, second compound 1 µM
[4] = curve of first compound, second compound 3.16 µM
[5] = curve of first compound, second compound 10 µM
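Also: spheroids exposed to agents for seven days before reading.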

IC50 [1]: > 300 nM
IC50 [2]: > 300 nM
IC50 [3]: > 300 nM
IC50 [4]: > 300 nM
IC50 [5]: < 0.949 nM
SMILES: CCc1c2c(nc3ccc(O)cc13)-c1cc3c(c(=O)n1C2)COC(=O)[C@]3(O)CC + Cc1cncc(-c2nc(NCCc3c[nH]c4ccccc34)c3ncn(C(C)C)c3n2)c1
viability, T/C (second compound 0.1 µM, first compound 0.000949 µM): 97%
viability, T/C (second compound 0.1 µM, first compound 0.003 µM): 99.5%
viability, T/C (second compound 0.1 µM, first compound 0.00949 µM): 77.6%
viability, T/C (second compound 0.1 µM, first compound 0.03 µM): 77.5%
viability, T/C (second compound 0.1 µM, first compound 0.0949 µM): 71.1%
viability, T/C (second compound 0.1 µM, first compound 0.3 µM): 91.8%
viability, T/C (second compound 0.316 µM, first compound 0.000949 µM): 101%
viability, T/C (second compound 0.316 µM, first compound 0.003 µM): 89.9%
viability, T/C (second compound 0.316 µM, first compound 0.00949 µM): 71.9%
viability, T/C (second compound 0.316 µM, first compound 0.03 µM): 67.2%
viability, T/C (second compound 0.316 µM, first compound 0.0949 µM): 66.4%
viability, T/C (second compound 0.316 µM, first compound 0.3 µM): 67.6%
viability, T/C (second compound 1 µM, first compound 0.000949 µM): 86.4%
viability, T/C (second compound 1 µM, first compound 0.003 µM): 89.1%
viability, T/C (second compound 1 µM, first compound 0.00949 µM): 70%
viability, T/C (second compound 1 µM, first compound 0.03 µM): 81%
viability, T/C (second compound 1 µM, first compound 0.0949 µM): 94.3%
viability, T/C (second compound 1 µM, first compound 0.3 µM): 64.3%
viability, T/C (second compound 3.16 µM, first compound 0.000949 µM): 90%
viability, T/C (second compound 3.16 µM, first compound 0.003 µM): 96.2%
viability, T/C (second compound 3.16 µM, first compound 0.00949 µM): 72.3%
viability, T/C (second compound 3.16 µM, first compound 0.03 µM): 86.1%
viability, T/C (second compound 3.16 µM, first compound 0.0949 µM): 70%
viability, T/C (second compound 3.16 µM, first compound 0.3 µM): 65.3%
viability, T/C (second compound 10 µM, first compound 0.000949 µM): 10.4%
viability, T/C (second compound 10 µM, first compound 0.003 µM): 13.7%
viability, T/C (second compound 10 µM, first compound 0.00949 µM): 21.5%
viability, T/C (second compound 10 µM, first compound 0.03 µM): 17%
viability, T/C (second compound 10 µM, first compound 0.0949 µM): 9.13%
viability, T/C (second compound 10 µM, first compound 0.3 µM): 7.22%

IC50 (curve of compound): > 3000 nM
SMILES: O=C(C=Cn1cnc(-c2cc(C(F)(F)F)cc(C(F)(F)F)c2)n1)NNc1cnccn1
viability, T/C (compound 0.00949 µM): 101% and 111% and 105%
viability, T/C (compound 0.03 µM): 104% and 93.9% and 109%
viability, T/C (compound 0.0949 µM): 105% and 106% and 103%
viability, T/C (compound 0.3 µM): 108% and 96.7% and 90.6%
viability, T/C (compound 0.949 µM): 81.6% and 74.5% and 86%
viability, T/C (compound 3 µM): 60.7% and 70.6% and 74.3%

IC50 [1]: 546 nM
IC50 [2]: 525 nM
IC50 [3]: > 1000 nM
IC50 [4]: 293 nM
IC50 [5]: < 3.16 nM
SMILES: CC1COCCN1c1cc(-c2ccnn2C)c2ccnc(-c3ccn[nH]3)c2n1 (configuration not stated) + Cc1cncc(-c2nc(NCCc3c[nH]c4ccccc34)c3ncn(C(C)C)c3n2)c1
viability, T/C (second compound 0.1 µM, first compound 0.00316 µM): 106%
viability, T/C (second compound 0.1 µM, first compound 0.01 µM): 89.7%
viability, T/C (second compound 0.1 µM, first compound 0.0316 µM): 102%
viability, T/C (second compound 0.1 µM, first compound 0.1 µM): 74.6%
viability, T/C (second compound 0.1 µM, first compound 0.316 µM): 62.6%
viability, T/C (second compound 0.1 µM, first compound 1 µM): 37.8%
viability, T/C (second compound 0.316 µM, first compound 0.00316 µM): 85.3%
viability, T/C (second compound 0.316 µM, first compound 0.01 µM): 92.6%
viability, T/C (second compound 0.316 µM, first compound 0.0316 µM): 76.2%
viability, T/C (second compound 0.316 µM, first compound 0.1 µM): 81.1%
viability, T/C (second compound 0.316 µM, first compound 0.316 µM): 60.2%
viability, T/C (second compound 0.316 µM, first compound 1 µM): 35.8%
viability, T/C (second compound 1 µM, first compound 0.00316 µM): 66.5%
viability, T/C (second compound 1 µM, first compound 0.01 µM): 63%
viability, T/C (second compound 1 µM, first compound 0.0316 µM): 69.3%
viability, T/C (second compound 1 µM, first compound 0.1 µM): 72.9%
viability, T/C (second compound 1 µM, first compound 0.316 µM): 53.5%
viability, T/C (second compound 1 µM, first compound 1 µM): 50.2%
viability, T/C (second compound 3.16 µM, first compound 0.00316 µM): 66.7%
viability, T/C (second compound 3.16 µM, first compound 0.01 µM): 74.1%
viability, T/C (second compound 3.16 µM, first compound 0.0316 µM): 73.1%
viability, T/C (second compound 3.16 µM, first compound 0.1 µM): 63.8%
viability, T/C (second compound 3.16 µM, first compound 0.316 µM): 49.4%
viability, T/C (second compound 3.16 µM, first compound 1 µM): 40.2%
viability, T/C (second compound 10 µM, first compound 0.00316 µM): 3.13%
viability, T/C (second compound 10 µM, first compound 0.01 µM): 3.32%
viability, T/C (second compound 10 µM, first compound 0.0316 µM): 3.34%
viability, T/C (second compound 10 µM, first compound 0.1 µM): 4.58%
viability, T/C (second compound 10 µM, first compound 0.316 µM): 3.11%
viability, T/C (second compound 10 µM, first compound 1 µM): 5.96%
